Source: PubChem BioAssay AID256 (DTP/NCI, 2004)
“And” between values parts separate entries of the source, which are not always exact repeats. Equal values may be shown once. Toxic doses and inconclusive results are not listed.

Test system: CD2F1 mice, L1210 leukemia ip, survival T/C
Assay: NCI In Vivo Anticancer Drug Screen. Data for tumor model L1210 Leukemia (intraperitoneal) in CD2F1 (CDF1) mice
Settings: higher = longer survival
How it was run: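 Compound-dosed mice with transplantable tumor versus matched vehicle controls; endpoint ratio T/C reported.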

How did the T/C (endpoint: mean survival time, dose: 100.0 mg/kg/injection, schedule: Q03DX003 (ip), vehicle: saline) turn out when CN(C)/N=N/c1nc[nH]c1C(N)=O was run?
Its T/C is 120 % of control.

What about the T/C (endpoint: mean survival time, dose: 100.0 mg/kg/injection, schedule: Q03HX016 (ip), vehicle: steriod suspending solution) of the same compound?
The T/C was 122 % of control.

And the T/C (endpoint: mean survival time, dose: 100.0 mg/kg/injection, schedule: Q03HX016 (oral), vehicle: steriod suspending solution)?
Its T/C is 116 % of control.

And the T/C (endpoint: mean survival time, dose: 100.0 mg/kg/injection, schedule: Q04DX003 (ip), vehicle: Klucel (hydroxypropylcellulose) (HPC))?
The T/C was 114 % of control.

What about the T/C (endpoint: mean survival time, dose: 100.0 mg/kg/injection, schedule: Q04DX003 (ip), vehicle: other) of the same compound?
The T/C was 114 % of control and 120 % of control.

And the T/C (endpoint: mean survival time, dose: 100.0 mg/kg/injection, schedule: Q04DX003 (ip), vehicle: saline)?
The T/C was 108 % of control.

What about the T/C (endpoint: mean survival time, dose: 100.0 mg/kg/injection, schedule: Q04DX003 (ip), vehicle: steriod suspending solution) of the same compound?
Its T/C is 116 % of control.

And the T/C (endpoint: mean survival time, dose: 100.0 mg/kg/injection, schedule: Q04DX003 (oral), vehicle: steriod suspending solution)?
The T/C was 116 % of control.

What about the T/C (endpoint: mean survival time, dose: 100.0 mg/kg/injection, schedule: Q08DX002 (ip), vehicle: steriod suspending solution) of the same compound?
The T/C was 117 % of control.

And the T/C (endpoint: mean survival time, dose: 100.0 mg/kg/injection, schedule: Q08DX002 (oral), vehicle: steriod suspending solution)?
Its T/C is 115 % of control.

What about the T/C (endpoint: mean survival time, dose: 150.0 mg/kg/injection, schedule: Q01DX001 (oral), vehicle: saline) of the same compound?
Its T/C is 101 % of control.

And the T/C (endpoint: mean survival time, dose: 150.0 mg/kg/injection, schedule: Q01DX009 (ip), vehicle: Klucel (hydroxypropylcellulose) (HPC))?
The T/C was 172 % of control.

What about the T/C (endpoint: mean survival time, dose: 180.0 mg/kg/injection, schedule: Q04DX003 (ip), vehicle: saline) of the same compound?
The T/C was 114 % of control and 108 % of control.

What about the T/C (endpoint: mean survival time, dose: 182.0 mg/kg/injection, schedule: Q01DX009 (ip), vehicle: Klucel (hydroxypropylcellulose) (HPC)) of the same compound?
Its T/C is 120 % of control.

What about the T/C (endpoint: mean survival time, dose: 200.0 mg/kg/injection, schedule: Q01DX001 (ip), vehicle: distilled water + Tween-80) of the same compound?
Its T/C is 120 % of control.

What about the T/C (endpoint: mean survival time, dose: 200.0 mg/kg/injection, schedule: Q01DX007 (ip), vehicle: saline) of the same compound?
The T/C was 159 % of control.

And the T/C (endpoint: mean survival time, dose: 200.0 mg/kg/injection, schedule: Q01DX009 (ip), vehicle: DMSO)?
Its T/C is 174 % of control.

And the T/C (endpoint: mean survival time, dose: 200.0 mg/kg/injection, schedule: Q01DX009 (ip), vehicle: saline)?
Its T/C is 151 % of control.

What about the T/C (endpoint: mean survival time, dose: 200.0 mg/kg/injection, schedule: Q01DX009 (ip), vehicle: steriod suspending solution) of the same compound?
The T/C was 157 % of control.

What about the T/C (endpoint: mean survival time, dose: 200.0 mg/kg/injection, schedule: Q01DX009 (ip), vehicle: water) of the same compound?
Its T/C is 118 % of control.

And the T/C (endpoint: mean survival time, dose: 200.0 mg/kg/injection, schedule: Q01DX009 (oral), vehicle: steriod suspending solution)?
Its T/C is 169 % of control.

And the T/C (endpoint: mean survival time, dose: 200.0 mg/kg/injection, schedule: Q04DX003 (ip), vehicle: Klucel (hydroxypropylcellulose) (HPC))?
Its T/C is 123 % of control.

And the T/C (endpoint: mean survival time, dose: 200.0 mg/kg/injection, schedule: Q04DX003 (ip), vehicle: steriod suspending solution)?
The T/C was 116 % of control.

What about the T/C (endpoint: mean survival time, dose: 200.0 mg/kg/injection, schedule: Q04DX003 (oral), vehicle: steriod suspending solution) of the same compound?
Its T/C is 122 % of control.

And the T/C (endpoint: mean survival time, dose: 200.0 mg/kg/injection, schedule: Q08DX002 (oral), vehicle: steriod suspending solution)?
The T/C was 118 % of control.

What about the T/C (endpoint: mean survival time, dose: 300.0 mg/kg/injection, schedule: Q01DX001 (oral), vehicle: saline) of the same compound?
The T/C was 113 % of control.

What about the T/C (endpoint: mean survival time, dose: 364.0 mg/kg/injection, schedule: Q01DX009 (ip), vehicle: Klucel (hydroxypropylcellulose) (HPC)) of the same compound?
The T/C was 63 % of control.

And the T/C (endpoint: mean survival time, dose: 400.0 mg/kg/injection, schedule: Q01DX005 (ip), vehicle: other)?
The T/C was 113 % of control.

What about the T/C (endpoint: mean survival time, dose: 400.0 mg/kg/injection, schedule: Q01DX009 (ip), vehicle: water) of the same compound?
The T/C was 96 % of control.

What about the T/C (endpoint: mean survival time, dose: 400.0 mg/kg/injection, schedule: Q01DX009 (oral), vehicle: steriod suspending solution) of the same compound?
The T/C was 152 % of control.

What about the T/C (endpoint: mean survival time, dose: 400.0 mg/kg/injection, schedule: Q08DX002 (ip), vehicle: steriod suspending solution) of the same compound?
Its T/C is 121 % of control.

And the T/C (endpoint: mean survival time, dose: 600.0 mg/kg/injection, schedule: Q01DX001 (oral), vehicle: saline)?
The T/C was 121 % of control.

What about the T/C (endpoint: mean survival time, dose: 800.0 mg/kg/injection, schedule: Q08DX002 (ip), vehicle: steriod suspending solution) of the same compound?
The T/C was 164 % of control.

What about the T/C (endpoint: mean survival time, dose: 800.0 mg/kg/injection, schedule: Q08DX002 (oral), vehicle: steriod suspending solution) of the same compound?
Its T/C is 123 % of control.

And the T/C (endpoint: median survival time, dose: 9.8 mg/kg/injection, schedule: Q03HX008 (ip), vehicle: Klucel (hydroxypropylcellulose) (HPC))?
Its T/C is 105 % of control.

And the T/C (endpoint: median survival time, dose: 22.2 mg/kg/injection, schedule: Q03HX008 (ip), vehicle: Klucel (hydroxypropylcellulose) (HPC))?
The T/C was 114 % of control.

And the T/C (endpoint: median survival time, dose: 33.3 mg/kg/injection, schedule: Q03HX008 (ip), vehicle: Klucel (hydroxypropylcellulose) (HPC))?
Its T/C is 123 % of control.

And the T/C (endpoint: median survival time, dose: 48.0 mg/kg/injection, schedule: Q01DX005 (ip), vehicle: Klucel (hydroxypropylcellulose) (HPC))?
Its T/C is 115 % of control.

What about the T/C (endpoint: median survival time, dose: 50.0 mg/kg/injection, schedule: Q02DX005 (ip), vehicle: Klucel (hydroxypropylcellulose) (HPC)) of the same compound?
Its T/C is 121 % of control.

What about the T/C (endpoint: median survival time, dose: 72.0 mg/kg/injection, schedule: Q01DX005 (ip), vehicle: Klucel (hydroxypropylcellulose) (HPC)) of the same compound?
The T/C was 123 % of control.

And the T/C (endpoint: median survival time, dose: 100.0 mg/kg/injection, schedule: Q02DX005 (ip), vehicle: Klucel (hydroxypropylcellulose) (HPC))?
Its T/C is 117 % of control.

What about the T/C (endpoint: median survival time, dose: 108.0 mg/kg/injection, schedule: Q01DX005 (ip), vehicle: Klucel (hydroxypropylcellulose) (HPC)) of the same compound?
Its T/C is 124 % of control.

What about the T/C (endpoint: median survival time, dose: 240.0 mg/kg/injection, schedule: Q01DX001 (ip), vehicle: Klucel (hydroxypropylcellulose) (HPC)) of the same compound?
Its T/C is 115 % of control.

What about the T/C (endpoint: median survival time, dose: 600.0 mg/kg/injection, schedule: Q01DX001 (ip), vehicle: Klucel (hydroxypropylcellulose) (HPC)) of the same compound?
Its T/C is 121 % of control.

What about the T/C (endpoint: median survival time, dose: 900.0 mg/kg/injection, schedule: Q01DX001 (ip), vehicle: Klucel (hydroxypropylcellulose) (HPC)) of the same compound?
The T/C was 123 % of control.
